Reference: publication PMC8330957 (Nature genetics, 2020)
Entries after “also recorded” stand apart in the source; their conditions may differ.

Experiments:
[1] = test system: JURKAT cells; experiment: RT-qPCR of H3K27me3-marked genes after UNC1999 treatment, JURKAT; format: cell-based, human; details: 5 μM UNC1999, three days, three independent experiments
[2] = test system: 3×Flag-BAHCC1 at TSS of target genes, JURKAT cells; experiment: Flag ChIP-qPCR of BAHCC1 binding to target genes; format: cell-based, human; details: UNC1999 versus DMSO, three independent experiments
[3] = test system: BAHCC1 (chromatin-bound), 293 cells; experiment: Cell fractionation and immunoblotting of chromatin-bound BAHCC1; format: cell-based; details: immunoblotting after cell fractionation, UNC1999 versus DMSO
[4] = test system: JURKAT cells; experiment: RNA-seq of JURKAT cells treated with UNC1999; format: cell-based, human; details: three-day treatment with 5 μM UNC1999
[5] = test system: CUTLL1 cells; experiment: RT-qPCR of H3K27me3-marked genes after UNC1999 treatment, CUTLL1; format: cell-based, human; details: 5 μM UNC1999, three days, three independent experiments

SMILES: CCCc1cc(C)[nH]c(=O)c1CNC(=O)c1cc(-c2ccc(N3CCN(C(C)C)CC3)nc2)cc2c1cnn2C(C)C [UNC1999]
- expression of examined H3K27me3-marked genes [1]: re-activation
- BAHCC1 binding to its target genes [2]: significantly reduced
- overall BAHCC1 binding to chromatin [3]: impaired
- overlap of UNC1999-derepressed DEGs with those caused by BAHCC1 loss [4]: significant overlapping; also recorded: significantly overlapped
- expression of examined H3K27me3-marked genes [5]: re-activation
